# Assay results reported in patent publication US7041292B1, “Treating prostate cancer with anti-ErbB2 antibodies” (Genentech, Inc., priority 1999, dated 2006).
# Entries after “also recorded” stand apart in the source; their conditions may differ.
# B1: PEG-Fab: Fab' fragment of rhuMAb 2C4 expressed in E. coli and conjugated to 20 kD branched polyethylene glycol (conjugate, chains of the INN, looked up)
# VH: EVQLVESGGGLVQPGGSLRLSCAASGFTFTDYTMDWVRQAPGKGLEWVADVNPNSGGSIYNQRFKGRFTLSVDRSKNTLYLQMNSLRAEDTAVYYCARNLGPSFYFDYWGQGTLVTVSS
# VL: DIQMTQSPSSLSASVGDRVTITCKASQDVSIGVAWYQQKPGKAPKLLIYSASYRYTGVPSRFSGSGSGTDFTLTISSLQPEDFATYYCQQYYIYPYTFGQGTKVEIK
# modifications: Fab' 20 kD branched PEG
# What was measured:
# [1] = test system: LNCaP human prostate cancer xenograft; assay: Androgen dependent LNCaP prostate cancer xenograft; format: in vivo, mice; details: end of the treatment period, n=6
# Excerpt: Animal studies: Four to six week old nude athymic BALB/c male and female mice were obtained from the National Cancer Institute-Frederick Cancer Center and maintained in pressurized ventilated caging at the Sloan-Kettering Institute. Male animals were inoculated s.c. with 1×10^6 LNCaP cells or minced tumor tissue from the androgen dependent CWR22, and females received the androgen independent sublines CWR22R, or CWR22SA1, CWRSA4, CWRSA6 which were obtained by selecting tumors for regrowth and increased serum PSA after androgen withdrawal. All lines were injected together with reconstituted basement membrane (Matrigel; Collaborative Research, Bedford, Mass.) as described previously (Nagabhushan et al. Cancer Res. 56:3042–3046 (1996); Wainstein et al. Cancer Res. 54:6049–6052 (1994); and Sato et al. Cancer Res. 57:1584–1589 (1997)). To maintain serum testosterone levels, male mice were implanted with 12.5-mg sustained release testosterone pellets (Innovative Research of American, Sarasota, Fla.) s.c. before receiving the tumor cell inoculation. […] Control mice were given vehicle alone. Tumors were measured every 3–4 days with vernier calipers, and tumor volumes were calculated by the formula: p/6 × larger diameter × (smaller diameter)^2. Animals with palpably established tumors of at least 65 mm^3 in volume were designated to treatment groups. […]
# [2] = test system: CWR22R human prostate cancer xenograft; assay: Androgen independent CWR22R prostate cancer xenograft; format: in vivo, mice; details: for effect on tumor growth / clinical activity: CWR22R androgen independent
# Procedure: (§3) Male animals were inoculated s.c. with 1×10^6 LNCaP cells or minced tumor tissue from the androgen dependent CWR22, and females received the androgen independent sublines CWR22R, or CWR22SA1, CWRSA4, CWRSA6 which were obtained by selecting tumors for regrowth and increased serum PSA after androgen withdrawal. […] Control mice were given vehicle alone. Tumors were measured every 3–4 days with vernier calipers, and tumor volumes were calculated by the formula: p/6 × larger diameter × (smaller diameter)^2. Animals with palpably established tumors of at least 65 mm^3 in volume were designated to treatment groups.
# Pairwise differences between the tumor volumes of the treatment groups were compared over time using a permutation test.
# (§4) The effect of an antibody, which blocks ligand activation of an ErbB receptor, on human prostate cancer was assessed.
# All injections were given IP (N=5).
# (§5) Both antibodies were dosed at 20 mg/kg twice per week.
# [3] = test system: CWRSA6 human prostate cancer xenograft; assay: Androgen independent CWRSA6 prostate cancer xenograft; format: in vivo, mice
# Procedure: as §3
# Statistical Analysis. Pairwise differences between the tumor volumes of the treatment groups were compared over time using a permutation test. […] The statistic used to test the hypothesis was the sum of the squared differences between mean tumor volume summed over all time points.
# MDA-MB-175 cells = assay: MDA-MB-175 cell proliferation, crystal violet, 4 days, with or without rHRGβ1; format: cell-based, human; details: 10 μg/mL, not significantly reversed by exogenous HRG, FIG. 4A
# Procedure: (§1) Experiment was carried out in medium containing 1% serum. Anti-ErbB2 antibodies or medium alone were added and the cells were incubated for 2 hours at 37° C. Subsequently rHRGβ1 (1 nM) or medium alone were added and the cells were incubated for 4 days. Monolayers were washed and stained/fixed with 0.5% crystal violet. To determine cell proliferation the absorbance was measured at 540 nm.
# (§2) ErbB2 levels in MDA-MB-175 cells are 4–6 times higher than the level found in normal breast epithelial cells and the ErbB2-ErbB4 receptor is constitutively tyrosine phosphorylated in MDA-MB-175 cells. […] Inhibition of cell proliferation by 4D5 is dependent on the ErbB2 expression level (Lewis et al. Cancer Immunol. Immunother. 37:255–263 (1993)). […] However this effect […] by exogenous HRG.
# SK-BR-3 cells = assay: SK-BR-3 cell proliferation, crystal violet, 4 days, with or without rHRGβ1; format: cell-based, human; details: 1% serum, FIG. 4B
# Procedure: as §1, §2
# [4] = test system: EGF, TGF-α or HRG mediated activation of MAPK in MCF7 cells; assay: EGF, TGF-α or HRG activation of MAPK in MCF7 cells, Western blot; format: cell-based, human; details: 200 nM antibody; 1 nM EGF, 1 nM TGF-α or 0.2 nM HRG; FIG. 10
# Procedure: Many growth factor receptors signal through the mitogen-activated protein kinase (MAPK) pathway. These dual specificity kinases are one of the key endpoints in signal transduction pathways that ultimately triggers cancer cells to divide.
# MCF7 cells (10^5 cells/well) were plated in serum containing media in 12-well cell culture plates. The next day, the cell media was removed and fresh media containing 0.1% serum was added to each well. This procedure was then repeated the following day and prior to assay the media was replaced with serum-free binding buffer (Jones et al. J. Biol. Chem. 273:11667–74 (1998); and Schaefer et al. J. Biol. Chem. 274:859–66 (1999)). […] Cells were then treated with 1 nM EGF, 1 nM TGF-α or 0.2 nM HRG for 15 minutes. The reaction was stopped by aspirating the cell medium and then adding 0.2 mL SDS-PAGE sample buffer containing 1% DTT. MAPK activation was assessed by Western blotting using an anti-active MAPK antibody (Promega) as described previously (Jones et al. J. Biol. Chem. 273:11667–74 (1998)).
# [5] = test system: CWR22 human prostate cancer xenograft; assay: Androgen dependent CWR22 prostate cancer xenograft; format: in vivo, mice; details: antibody 20 mg/kg twice weekly
# Excerpt: Animal studies: Four to six week old nude athymic BALB/c male and female mice were obtained from the National Cancer Institute-Frederick Cancer Center and maintained in pressurized ventilated caging at the Sloan-Kettering Institute. Male animals were inoculated s.c. with 1×10^6 LNCaP cells or minced tumor tissue from the androgen dependent CWR22, and females received the androgen independent sublines CWR22R, or CWR22SA1, CWRSA4, CWRSA6 which were obtained by selecting tumors for regrowth and increased serum PSA after androgen withdrawal. […] Control mice were given vehicle alone. Tumors were measured every 3–4 days with vernier calipers, and tumor volumes were calculated by the formula: p/6 × larger diameter × (smaller diameter)^2. Animals with palpably established tumors of at least 65 mm^3 in volume were designated to treatment groups.
# Pairwise differences between the tumor volumes of the treatment groups were compared over time using a permutation test. […] The statistic used to test the hypothesis was the sum of the squared differences between mean tumor volume summed over all time points.
# as §4, §5
# [6] = test system: MSKPC6 androgen independent prostate xenograft; assay: Androgen independent MSKPC6 prostate xenograft, dose response; format: in vivo; details: IP loading 6, 20 or 60 mg/kg then 3, 10 or 30 mg/kg twice weekly, FIG. 25
# Procedure: Dose response studies were carried out using rhuMAb 4D5 in the CWR22R and MSKPC6 (Agus et al. Cancer Research 59:4761–4764 (1999)) androgen independent prostate xenografts. Animals were dosed IP with: control; 6 mg/kg loading dose then 3 mg/kg twice weekly; 20 mg/kg loading dose then 10 mg/kg twice weekly; or 60 mg/kg loading dose then 30 mg/kg twice weekly.
molecule,measurement,setting,value
"CC(=O)O[C@H]1C(=O)[C@@]2(C)[C@H]([C@H](OC(=O)c3ccccc3)[C@]3(O)C[C@H](OC(=O)[C@H](O)[C@@H](NC(=O)c4ccccc4)c4ccccc4)C(C)=C1C3(C)C)[C@]1(OC(C)=O)CO[C@@H]1C[C@@H]2O [paclitaxel, reference compound]",mean tumor volume,[1],233 mm^3
same,mean tumor volume,"[2]; CWR22R, end of the treatment period, n=5","1,273 mm^3"
same,mean tumor volume,"[3]; CWRSA6, end of the treatment period, n=5","1,496 mm^3"
"2C4: murine monoclonal antibody binding the extracellular domain of ErbB2, blocks ligand activation; ATCC HB12697 [Mutant 2C4]",growth inhibitory effect on MDA-MB-175 cells,MDA-MB-175 cells,strong growth inhibitory effect
same,growth inhibitory effect on SK-BR-3 cells,SK-BR-3 cells,no inhibitory effect
same,"block of EGF, TGF-α and HRG mediated activation of MAPK",[4],significantly blocks
same,effect on tumor growth / clinical activity,[5],has clinical activity
same,effect on tumor growth / clinical activity,[2],has clinical activity; also recorded: suppresses the growth of androgen-independent tumor xenografts in a dose dependent manner
same,effect on tumor growth / clinical activity,[3]; CWRSA6 androgen independent,has clinical activity
same,effect on tumor growth,[6],suppresses the growth of androgen-independent tumor xenografts in a dose dependent manner
B1,effect on tumor growth / clinical activity,[2],inhibits tumor growth
